# Laboratory results taken from patent publication US20100317647A1 (priority 2009, published 2010).
# Molecular target: human Cat S (Homo sapiens, UniProt P25774)
# Test: Cathepsin enzyme inhibition assay (fluorogenic peptide substrate cleavage)
# Type: biochemical
# Conditions: human Cat S 1 nM; substrate Z-Val-Val-Arg-AMC 20 μM; pH 6.5; fluorescence over 20 minutes
# Description: Cathepsin Enzyme Inhibition Assay
# Enzyme activity is measured by observing the increase in fluorescence intensity caused by cleavage of a peptide substrate containing a fluorophore whose emission is quenched in the intact peptide.
# Assay buffer: 100 mM potassium phosphate pH 6.5, EDTA-Na 5 mM, Triton X-100 0.001%, DTT 5 mM. Enzymes (all at 1 nM): human and mouse Cathepsin S, Cat K, Cat B, Cat L. Substrate (20 μM): Z-Val-Val-Arg-AMC, except for Cat K which uses Z-Leu-Arg-AMC (both from Bachem).
# AMC=7-Amino-4-Methyl-Coumarin.
# DTT=dithiothreitol. Final volume: 100 μL.
# Excitation 360 nm, Emission 465 nm.
# Enzyme is added to the substance dilutions in 96-well microtitre plates and the reaction is started with substrate. Fluorescence emission is measured over 20 minutes, during which time a linear increase is observed in the absence of inhibitor. IC50 are calculated by standard methods. Inhibition of human Cat S, mouse Cat S, human Cat K, mouse Cat K, human Cat B, mouse Cat B, human Cat L and mouse Cat L have been measured separately. The results obtained for human Cat S are expressed in the following table.
# Chain of human Cat S (P25774 115-331): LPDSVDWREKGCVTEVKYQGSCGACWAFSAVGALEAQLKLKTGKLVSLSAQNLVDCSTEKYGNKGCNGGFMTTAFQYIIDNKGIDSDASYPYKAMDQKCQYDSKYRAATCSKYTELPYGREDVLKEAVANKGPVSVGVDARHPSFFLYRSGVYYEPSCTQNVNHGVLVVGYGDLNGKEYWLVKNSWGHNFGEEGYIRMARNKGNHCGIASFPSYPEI
row,SMILES,IC50
1,"COc1cncc(-c2ccc(S(=O)(=O)[C@H]3C[C@@H](OC)[C@H](C(=O)NC4(C#N)CC4)C3)c(C(F)(F)F)c2)c1 (racemic) [Example 86, (1R,2R,4R) and (1S,2S,4S)-2-Methoxy-4-[4-(5-methoxy-pyridin-3-yl)-2-trifluoromethyl-benzenesulfonyl]-cyclopentanecarboxylic acid (1-cyano-cyclopropyl)-amide]",0.5 nM
2,"CO[C@@H]1C[C@H](S(=O)(=O)c2ccc(-c3cc(C)sc3C)cc2C(F)(F)F)C[C@H]1C(=O)NC1(C#N)CC1 (racemic) [Example 87, (1R,2R,4R) and (1S,2S,4S)-4-[4-(2,5-Dimethyl-thiophen-3-yl)-2-trifluoromethyl-benzenesulfonyl]-2-methoxy-cyclopentanecarboxylic acid (1-cyano-cyclopropyl)-amide]",0.2 nM
3,"CO[C@@H]1C[C@H](S(=O)(=O)c2ccc(-n3nc(C)ccc3=O)cc2Cl)C[C@H]1C(=O)NC1(C#N)CC1 (racemic) [Example 88, (1R,2R,4R) and (1S,2S,4S)-4-[2-Chloro-4-(3-methyl-6-oxo-6H-pyridazin-1-yl)-benzenesulfonyl]-2-methoxy-cyclopentanecarboxylic acid (1-cyano-cyclopropyl)-amide]",9.1 nM
4,"COc1ccc(S(=O)(=O)[C@H]2C[C@@H](OC)[C@H](C(=O)NC3(C#N)CC3)C2)c(Cl)c1 (racemic) [Example 89, (1R,2R,4R) and (1S,2S,4S)-4-(2-Chloro-4-methoxy-benzenesulfonyl)-2-methoxy-cyclopentanecarboxylic acid (1-cyano-cyclopropyl)-amide]",7.4 nM
5,"CO[C@@H]1C[C@H](S(=O)(=O)c2ccc(-c3cncc(Cl)c3)cc2C(F)(F)F)C[C@H]1C(=O)NC1(C#N)CC1 (racemic) [Example 90, (1R,2R,4R) and (1S,2S,4S)-4-[4-(5-Chloro-pyridin-3-yl)-2-trifluoromethyl-benzenesulfonyl]-2-methoxy-cyclopentanecarboxylic acid (1-cyano-cyclopropyl)-amide]",0.4 nM
6,"CO[C@@H]1C[C@H](S(=O)(=O)c2ccc(-c3c(C)noc3C)cc2C(F)(F)F)C[C@H]1C(=O)NC1(C#N)CC1 (racemic) [Example 91, (1R,2R,4R) and (1S,2S,4S)-4-[4-(3,5-Dimethyl-isoxazol-4-yl)-2-trifluoromethyl-benzenesulfonyl]-2-methoxy-cyclopentanecarboxylic acid (1-cyano-cyclopropyl)-amide]",0.5 nM
7,"N#CC1(NC(=O)[C@H]2CC[C@H](S(=O)(=O)c3ccc(F)cc3Cl)C2)CC1 (racemic) [Example 92, (1S,3S) and (1R,3R)-3-(2-Chloro-4-fluoro-benzenesulfonyl)-cyclopentanecarboxylic acid (1-cyano-cyclopropyl)-amide]",385 nM
8,C[C@@H](Oc1ccc(S(=O)(=O)[C@H]2CC[C@H](C(=O)NC3(C#N)CC3)C2)c(Cl)c1)C(F)(F)F (racemic) [Example 93],565 nM
9,"N#CC1(NC(=O)[C@H]2CC[C@H](S(=O)(=O)c3ccc(N4CCOCC4)cc3Cl)C2)CC1 (racemic) [Example 94, (1S,3S) and (1R,3R)-3-(2-Chloro-4-morpholin-4-yl-benzenesulfonyl)-cyclopentanecarboxylic acid (1-cyano-cyclopropyl)-amide]",290 nM
10,"N#CC1(NC(=O)[C@H]2CC[C@H](S(=O)(=O)c3ccc(N4CC5(COC5)C4)cc3Cl)C2)CC1 (racemic) [Example 95, (1S,3S) and (1R,3R)-3-[2-chloro-4-(2-oxa-6-aza-spiro[3.3]hept-6-yl)-benzenesulfonyl]-cyclopentanecarboxylic acid (1-cyano-cyclopropyl)-amide]",140 nM
11,"N#CC1(NC(=O)[C@H]2CC[C@H](S(=O)(=O)c3ccc(N4CCC(F)(F)C4)cc3Cl)C2)CC1 (racemic) [Example 96, (1S,3S) and (1R,3R)-3-[2-chloro-4-(3,3-difluoro-pyrrolidin-1-yl)-benzenesulfonyl]-cyclopentanecarboxylic acid (1-cyano-cyclopropyl)-amide]",213 nM
12,"CCN1CCN(c2ccc(S(=O)(=O)[C@H]3CC[C@H](C(=O)NC4(C#N)CC4)C3)c(Cl)c2)CC1 (racemic) [Example 97, (1S,3S) and (1R,3R)-3-[2-chloro-4-(4-ethyl-piperazin-1-yl)-benzenesulfonyl]-cyclopentanecarboxylic acid (1-cyano-cyclopropyl)-amide]",157 nM

# More lines, now with the values ahead:
row,IC50,SMILES
1,270 nM,"N#CC1(NC(=O)[C@H]2CC[C@H](S(=O)(=O)c3ccc(N4CCN(C5CC5)CC4)cc3Cl)C2)CC1 (racemic) [Example 102, (1S,3S) and (1R,3R)-3-[2-Chloro-4-(4-cyclopropyl-piperazin-1-yl)-benzenesulfonyl]-cyclopentanecarboxylic acid (1-cyano-cyclopropyl)-amide]"
2,0.4 nM,"CO[C@@H]1C[C@H](S(=O)(=O)c2ccc(-c3ccnc(C(F)(F)F)c3)cc2C(F)(F)F)C[C@H]1C(=O)NC1(C#N)CC1 (racemic) [Example 109, (1R,2R,4R) and (1S,2S,4S)-2-Methoxy-4-[2-trifluoromethyl-4-(2-trifluoromethyl-pyridin-4-yl)-benzenesulfonyl]-cyclopentanecarboxylic acid (1-cyano-cyclopropyl)-amide]"
3,0.6 nM,"CO[C@@H]1C[C@H](S(=O)(=O)c2ccc(-c3ccnnc3)cc2C(F)(F)F)C[C@H]1C(=O)NC1(C#N)CC1 (racemic) [Example 110, (1R,2R,4R) and (1S,2S,4S)-2-Methoxy-4-(4-pyridazin-4-yl-2-trifluoromethyl-benzenesulfonyl)-cyclopentanecarboxylic acid (1-cyano-cyclopropyl)-amide]"
4,0.4 nM,"CO[C@@H]1C[C@H](S(=O)(=O)c2ccc(-c3cnccn3)cc2C(F)(F)F)C[C@H]1C(=O)NC1(C#N)CC1 (racemic) [Example 111, (1R,2R,4R) and (1S,2S,4S)-2-Methoxy-4-(4-pyrazin-2-yl-2-trifluoromethyl-benzenesulfonyl)-cyclopentanecarboxylic acid (1-cyano-cyclopropyl)-amide]"
5,0.6 nM,"CC(C)O[C@@H]1C[C@H](S(=O)(=O)c2ccc(Br)cc2C(F)(F)F)C[C@H]1C(=O)NC1(C#N)CC1 (racemic) [Example 112, (1R,2R,4R) and (1S,2S,4S)-4-(4-Bromo-2-trifluoromethyl-benzenesulfonyl)-2-isopropoxy-cyclopentanecarboxylic acid (1-cyano-cyclopropyl)-amide]"
6,1.1 nM,"CCO[C@@H]1C[C@H](S(=O)(=O)c2ccc(Br)cc2C(F)(F)F)C[C@H]1C(=O)NC1(C#N)CC1 (racemic) [Example 113, (1R,2R,4R) and (1S,2S,4S)-4-(4-Bromo-2-trifluoromethyl-benzenesulfonyl)-2-ethoxy-cyclopentanecarboxylic acid (1-cyano-cyclopropyl)-amide]"
7,0.3 nM,"CCO[C@@H]1C[C@H](S(=O)(=O)c2ccc(-c3ccnc(C)c3)cc2C(F)(F)F)C[C@H]1C(=O)NC1(C#N)CC1 (racemic) [Example 114, (1R,2R,4R) and (1S,2S,4S)-2-Ethoxy-4-[4-(2-methyl-pyridin-4-yl)-2-trifluoromethyl-benzenesulfonyl]-cyclopentanecarboxylic acid (1-cyano-cyclopropyl)-amide]"
8,0.2 nM,"CCO[C@@H]1C[C@H](S(=O)(=O)c2ccc(-c3c(C)noc3C)cc2C(F)(F)F)C[C@H]1C(=O)NC1(C#N)CC1 (racemic) [Example 115, (1R,2R,4R) and (1S,2S,4S)-4-[4-(3,5-Dimethyl-isoxazol-4-yl)-2-trifluoromethyl-benzenesulfonyl]-2-ethoxy-cyclopentanecarboxylic acid (1-cyano-cyclopropyl)-amide]"
9,0.3 nM,"CCO[C@@H]1C[C@H](S(=O)(=O)c2ccc(-c3cnn(C)c3)cc2C(F)(F)F)C[C@H]1C(=O)NC1(C#N)CC1 (racemic) [Example 116, (1R,2R,4R) and (1S,2S,4S)-2-Ethoxy-4-[4-(1-methyl-1H-pyrazol-4-yl)-2-trifluoromethyl-benzenesulfonyl]-cyclopentanecarboxylic acid (1-cyano-cyclopropyl)-amide]"
10,0.2 nM,"Cc1cc(-c2ccc(S(=O)(=O)[C@H]3C[C@@H](OC(C)C)[C@H](C(=O)NC4(C#N)CC4)C3)c(C(F)(F)F)c2)ccn1 (racemic) [Example 140, (1R,2R,4R) and (1S,2S,4S)-2-Isopropoxy-4-[4-(2-methyl-pyridin-4-yl)-2-trifluoromethyl-benzenesulfonyl]-cyclopentanecarboxylic acid (1-cyano-cyclopropyl)-amide]"
11,0.2 nM,"Cc1noc(C)c1-c1ccc(S(=O)(=O)[C@H]2C[C@@H](OC(C)C)[C@H](C(=O)NC3(C#N)CC3)C2)c(C(F)(F)F)c1 (racemic) [Example 141, (1R,2R,4R) and (1S,2S,4S)-4-[4-(3,5-Dimethyl-isoxazol-4-yl)-2-trifluoromethyl-benzenesulfonyl]-2-isopropoxy-cyclopentanecarboxylic acid (1-cyano-cyclopropyl)-amide]"
12,0.2 nM,"CC(C)O[C@@H]1C[C@H](S(=O)(=O)c2ccc(-c3cnn(C)c3)cc2C(F)(F)F)C[C@H]1C(=O)NC1(C#N)CC1 (racemic) [Example 142, (1R,2R,4R) and (1S,2S,4S)-2-Isopropoxy-4-[4-(1-methyl-1H-pyrazol-4-yl)-2-trifluoromethyl-benzenesulfonyl]-cyclopentanecarboxylic acid (1-cyano-cyclopropyl)-amide]"
